# Test results taken from US9790219B2, “Compounds, compositions, and methods for increasing CFTR activity” (Proteostasis Therapeutics, Inc., priority 2014, dated 2017).
# Target: T1, ΔF508-CFTR (Homo sapiens, UniProt P13569, DEL508-508)
# T1 construct: Primary lung epithelial cells homozygous for the Cystic Fibrosis-causing ΔF508 mutation; endogenous in cells; host or cells: primary human lung (bronchial) epithelial cells homozygous for ΔF508, differentiated at air-liquid interface
# Assay: hBE equivalent current (Ieq) assay
# Type: cell-based
# Conditions: compound alone at 10 uM, relative to VX-809 at 1 uM; AUC of equivalent chloride current; primary hBE homozygous ΔF508; 24 h treatment
# Description: Primary lung epithelial cells homozygous for the Cystic Fibrosis-causing ΔF508 mutation were differentiated for a minimum of 4 weeks in an air-liquid interface on Costar 24 well HTS filter plates prior to the equivalent current (Ieq) measurements. Cells were apically mucus-washed for 30 minutes 24 h prior to treatment with compounds. The basolateral media was removed and replaced with media containing the compound of interest diluted to its final concentration from DMSO stocks. Treated cells were incubated at 37° C. and 5% CO2 for 24 hours. At the end of the treatment period, the media was changed to the Ieq experimental solution for 30 minutes before the experiment and plates are maintained in a CO2-free incubator during this period. The plates containing the cells were then placed in pre-warmed heating blocks at 36° C.±0.5 for 15 minutes before measurements are taken. The transepithelial voltage (VT) and conductance (GT) were measured using a custom 24 channel current clamp (TECC-24) with 24 well electrode manifold. The Ieq assay measurements were made following additions with standardized time periods: • 1. The baseline VT and GT values were measured for approximately 20 minutes. • 2. Benzamil was added to block ENaC for 15 minutes. • 3. Forskolin plus VX-770 were added to maximally activate ΔF508-CFTR for 27 minutes. • 4. Bumetanide was added to inhibit the NaK2Cl cotransporter and shut-off secretion of chloride.
# The activity data captured was the area under the curve (AUC) for the traces of the equivalent chloride current. The AUC was collected from the time of the forskolin/VX-770 addition until the inhibition by bumetanide addition. Correction in response to compound treatment was scored as the increase in the AUC for compound-treated samples over that of vehicle-treated samples. The results are shown below in Table 2 (++indicates activity ≧25% run at 10 uM of VX-809 at 1 uM; +indicates activity 10 to <25% run at 10 uM of VX-809 at 1 uM; ** indicates activity ≧200% of VX-809 (1 uM) with compound at 10 uM and VX-809 at 1 uM; * indicates activity 100-200% of VX-809 (1 uM) with compound at 10 uM and VX-809 at 1 uM)
# T1 sequence (P13569 with tags, fused parts or gaps DEL508-508): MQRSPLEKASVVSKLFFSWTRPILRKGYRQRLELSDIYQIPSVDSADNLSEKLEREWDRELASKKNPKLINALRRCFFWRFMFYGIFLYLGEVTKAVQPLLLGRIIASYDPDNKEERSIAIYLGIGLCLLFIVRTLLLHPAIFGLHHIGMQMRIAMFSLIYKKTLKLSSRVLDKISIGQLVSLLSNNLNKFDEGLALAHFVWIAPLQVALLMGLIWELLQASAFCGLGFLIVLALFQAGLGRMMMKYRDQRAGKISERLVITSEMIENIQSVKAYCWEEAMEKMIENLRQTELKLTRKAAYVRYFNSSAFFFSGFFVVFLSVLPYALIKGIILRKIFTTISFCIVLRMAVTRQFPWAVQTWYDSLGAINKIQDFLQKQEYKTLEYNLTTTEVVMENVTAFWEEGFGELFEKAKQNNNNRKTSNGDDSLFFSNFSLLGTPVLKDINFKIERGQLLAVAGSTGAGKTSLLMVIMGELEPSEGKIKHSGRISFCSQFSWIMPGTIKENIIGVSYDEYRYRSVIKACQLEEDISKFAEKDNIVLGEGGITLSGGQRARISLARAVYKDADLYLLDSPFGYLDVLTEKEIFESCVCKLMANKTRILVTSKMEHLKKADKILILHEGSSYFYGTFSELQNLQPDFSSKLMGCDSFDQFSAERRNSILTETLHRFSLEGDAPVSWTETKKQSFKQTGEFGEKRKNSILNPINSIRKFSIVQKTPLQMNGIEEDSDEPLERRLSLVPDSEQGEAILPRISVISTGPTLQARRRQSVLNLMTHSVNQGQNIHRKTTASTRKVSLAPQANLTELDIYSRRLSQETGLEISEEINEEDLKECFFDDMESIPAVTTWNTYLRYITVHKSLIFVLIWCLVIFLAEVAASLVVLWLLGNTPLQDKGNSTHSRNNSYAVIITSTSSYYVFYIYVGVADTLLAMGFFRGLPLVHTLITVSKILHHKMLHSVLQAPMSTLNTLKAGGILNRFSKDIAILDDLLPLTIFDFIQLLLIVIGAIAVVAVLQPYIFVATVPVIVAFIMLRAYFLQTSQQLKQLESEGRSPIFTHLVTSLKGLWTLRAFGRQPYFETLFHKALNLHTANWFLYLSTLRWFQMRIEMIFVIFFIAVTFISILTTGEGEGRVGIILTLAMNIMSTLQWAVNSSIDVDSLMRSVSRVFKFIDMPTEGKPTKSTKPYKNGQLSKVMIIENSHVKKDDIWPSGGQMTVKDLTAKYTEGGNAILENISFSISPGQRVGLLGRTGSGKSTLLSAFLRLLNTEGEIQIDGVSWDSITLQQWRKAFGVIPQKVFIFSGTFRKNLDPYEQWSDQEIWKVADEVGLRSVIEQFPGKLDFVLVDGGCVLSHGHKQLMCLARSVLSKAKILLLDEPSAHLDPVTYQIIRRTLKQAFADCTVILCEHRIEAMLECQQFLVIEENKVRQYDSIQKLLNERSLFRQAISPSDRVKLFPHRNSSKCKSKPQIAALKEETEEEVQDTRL
row,Structure (SMILES),Ieq Activity
1,"O=C(NCCc1nnc(CO)o1)c1cc(-c2ccccc2)on1 [Compound A1, N-(2-(5-(hydroxymethyl)-1,3,4-oxadiazol-2-yl)ethyl)-5-phenylisoxazole-3-carboxamide]",++ (++indicates activity ≧25% run at 10 uM of VX-809 at 1 uM)

# Same assay, conditions: compound at 10 uM together with VX-809 at 1 uM, relative to VX-809 (1 uM); AUC of equivalent chloride current; primary hBE homozygous ΔF508; 24 h treatment
row,Structure (SMILES),Ieq Activity
1,"COC(C)c1nnc(CCNC(=O)c2cc(-c3ccccc3)on2)o1 (stereo in doubt) [Compound A24-a, (R)-N-(2-(5-(1-methoxyethyl)-1,3,4-oxadiazol-2-yl)ethyl)-5-phenylisoxazole-3-carboxamide]",* (* indicates activity 100-200% of VX-809 (1 uM) with compound at 10 uM and VX-809 at 1 uM)
2,"COC(C)c1nnc(CCNC(=O)c2cc(-c3ccccc3)on2)o1 (stereo in doubt) [Compound A24-b, (S)-N-(2-(5-(1-methoxyethyl)-1,3,4-oxadiazol-2-yl)ethyl)-5-phenylisoxazole-3-carboxamide]",* (* indicates activity 100-200% of VX-809 (1 uM) with compound at 10 uM and VX-809 at 1 uM)
3,"O=C(NCCc1nnc(CO)o1)c1cc(-c2ccccc2)on1 [Compound A1, N-(2-(5-(hydroxymethyl)-1,3,4-oxadiazol-2-yl)ethyl)-5-phenylisoxazole-3-carboxamide]",** (** indicates activity ≧200% of VX-809 (1 uM) with compound at 10 uM and VX-809 at 1 uM)
4,"O=C(NCCc1nnc(CBr)s1)c1cc(-c2ccccc2)on1 [Compound A3, N-(2-(5-(bromomethyl)-1,3,4-thiadiazol-2-yl)ethyl)-5-phenylisoxazole-3-carboxamide]",** (** indicates activity ≧200% of VX-809 (1 uM) with compound at 10 uM and VX-809 at 1 uM)
5,"COCc1nnc(CCNC(=O)c2cc(-c3ccccc3)on2)s1 [Compound A4, N-(2-(5-(methoxymethyl)-1,3,4-thiadiazol-2-yl)ethyl)-5-phenylisoxazole-3-carboxamide]",** (** indicates activity ≧200% of VX-809 (1 uM) with compound at 10 uM and VX-809 at 1 uM)
6,"COCc1nnc(CCNC(=O)c2cc(-c3ccccc3)on2)o1 [Compound A5, N-(2-(5-(methoxymethyl)-1,3,4-oxadiazol-2-yl)ethyl)-5-phenylisoxazole-3-carboxamide]",** (** indicates activity ≧200% of VX-809 (1 uM) with compound at 10 uM and VX-809 at 1 uM)
7,"Cc1nnc(CCCNC(=O)c2cc(-c3ccccc3)on2)s1 [Compound A6, N-(3-(5-methyl-1,3,4-thiadiazol-2-yl)propyl)-5-phenylisoxazole-3-carboxamide]",** (** indicates activity ≧200% of VX-809 (1 uM) with compound at 10 uM and VX-809 at 1 uM)
8,"[N-]=[N+]=NCc1nnc(CCNC(=O)c2cc(-c3ccccc3)on2)s1 [Compound A7, N-(2-(5-(azidomethyl)-1,3,4-thiadiazol-2-yl)ethyl)-5-phenylisoxazole-3-carboxamide]",** (** indicates activity ≧200% of VX-809 (1 uM) with compound at 10 uM and VX-809 at 1 uM)
9,"CC(C)c1nnc(CCNC(=O)c2cc(-c3ccccc3)on2)o1 [Compound A8, N-(2-(5-isopropyl-1,3,4-oxadiazol-2-yl)ethyl)-5-phenylisoxazole-3-carboxamide]",** (** indicates activity ≧200% of VX-809 (1 uM) with compound at 10 uM and VX-809 at 1 uM)
10,"CC(C)(O)c1nnc(CCNC(=O)c2cc(-c3ccccc3)on2)s1 [Compound A9, N-(2-(5-(2-hydroxypropan-2-yl)-1,3,4-thiadiazol-2-yl)ethyl)-5-phenylisoxazole-3-carboxamide]",** (** indicates activity ≧200% of VX-809 (1 uM) with compound at 10 uM and VX-809 at 1 uM)
11,"CC(C)(O)c1nnc(CCNC(=O)c2cc(-c3ccccc3)on2)o1 [Compound A10, N-(2-(5-(2-hydroxypropan-2-yl)-1,3,4-oxadiazol-2-yl)ethyl)-5-phenylisoxazole-3-carboxamide]",** (** indicates activity ≧200% of VX-809 (1 uM) with compound at 10 uM and VX-809 at 1 uM)
12,"O=C(NCCc1nnc(CO)s1)c1noc(-c2ccccc2)c1F [Compound A11, 4-fluoro-N-(2-(5-(hydroxymethyl)-1,3,4-thiadiazol-2-yl)ethyl)-5-phenylisoxazole-3-carboxamide]",* (* indicates activity 100-200% of VX-809 (1 uM) with compound at 10 uM and VX-809 at 1 uM)
13,"O=C(NCCc1nnc(CO)s1)c1noc(-c2ccc(F)cc2)c1F [Compound A12, 4-fluoro-5-(4-fluorophenyl)-N-(2-(5-(hydroxymethyl)-1,3,4-thiadiazol-2-yl)ethyl)isoxazole-3-carboxamide]",* (* indicates activity 100-200% of VX-809 (1 uM) with compound at 10 uM and VX-809 at 1 uM)
14,"C[C@@H](O)c1nnc(CCNC(=O)c2cc(-c3ccccc3)on2)s1 [Compound A13, (R)-N-(2-(5-(1-hydroxyethyl)-1,3,4-thiadiazol-2-yl)ethyl)-5-phenylisoxazole-3-carboxamide]",** (** indicates activity ≧200% of VX-809 (1 uM) with compound at 10 uM and VX-809 at 1 uM)
15,"C[C@@H](O)c1nnc(CCNC(=O)c2cc(-c3ccccc3)on2)o1 [Compound A14, (R)-N-(2-(5-(1-hydroxyethyl)-1,3,4-oxadiazol-2-yl)ethyl)-5-phenylisoxazole-3-carboxamide]",* (* indicates activity 100-200% of VX-809 (1 uM) with compound at 10 uM and VX-809 at 1 uM)
16,"O=C(NCCc1nnc(COC(F)(F)F)o1)c1cc(-c2ccccc2)on1 [Compound A15, 5-phenyl-N-(2-(5-((trifluoromethoxy)methyl)-1,3,4-oxadiazol-2-yl)ethyl)isoxazole-3-carboxamide]",* (* indicates activity 100-200% of VX-809 (1 uM) with compound at 10 uM and VX-809 at 1 uM)
17,"O=C(NCCc1nnc(COC(F)(F)F)s1)c1cc(-c2ccccc2)on1 [Compound A16, 5-phenyl-N-(2-(5-((trifluoromethoxy)methyl)-1,3,4-thiadiazol-2-yl)ethyl)isoxazole-3-carboxamide]",* (* indicates activity 100-200% of VX-809 (1 uM) with compound at 10 uM and VX-809 at 1 uM)
18,"O=C(NCCc1nnc(C(O)C(F)(F)F)s1)c1cc(-c2ccccc2)on1 (centres unmarked) [Compound A23, 5-phenyl-N-(2-(5-(2,2,2-trifluoro-1-hydroxyethyl)-1,3,4-thiadiazol-2-yl)ethyl)isoxazole-3-carboxamide]",** (** indicates activity ≧200% of VX-809 (1 uM) with compound at 10 uM and VX-809 at 1 uM)
19,"CO[C@@H](C)c1nnc(CCNC(=O)c2cc(-c3ccccc3)on2)s1 [Compound A25-a, (S)-N-(2-(5-(1-methoxyethyl)-1,3,4-thiadiazol-2-yl)ethyl)-5-phenylisoxazole-3-carboxamide]",** (** indicates activity ≧200% of VX-809 (1 uM) with compound at 10 uM and VX-809 at 1 uM)
20,"CO[C@H](C)c1nnc(CCNC(=O)c2cc(-c3ccccc3)on2)s1 [Compound A25-b, (R)-N-(2-(5-(1-methoxyethyl)-1,3,4-thiadiazol-2-yl)ethyl)-5-phenylisoxazole-3-carboxamide]",** (** indicates activity ≧200% of VX-809 (1 uM) with compound at 10 uM and VX-809 at 1 uM)

# Target: T1, ΔF508-CFTR
# Assay: Ussing measurements
# Type: cell-based
# Conditions: compound alone at 10 uM, relative to VX-809 at 1 uM; CFTRinh-172 inhibitable short-circuit current; primary hBE homozygous ΔF508; 24 h treatment
# Description: As discussed above, Ussing measurements can be used to measure CFTR activity. In this method, primary lung epithelial cells (hBEs) homozygous for the Cystic Fibrosis-causing ΔF508 mutation are differentiated for a minimum of 4 weeks in an air-liquid interface on SnapWell filter plates prior to the Ussing measurements. Cells are apically mucus-washed for 30 minutes prior to treatment with compounds. The basolateral media is removed and replaced with media containing the compound of interest diluted to its final concentration from DMSO stocks. Treated cells are incubated at 37° C. and 5% CO2 for 24 hours. At the end of the treatment period, the cells on filters are transferred to the Ussing chamber and equilibrated for 30 minutes. The short-circuit current is measured in voltage clamp-mode (Vhold=0 mV), and the entire assay is conducted at a temperature of 36° C.-36.5° C. Once the voltages stabilized, the chambers are clamped, and data is recorded by pulse readings every 5 seconds. Following baseline current stabilization, the following additions can be applied and the changes in current and resistance of the cells can be monitored: • 1. Benzamil to the apical chamber to inhibit ENaC sodium channel. • 2. Forskolin to both chambers to activate ΔF508-CFTR by phosphorylation. • 3. Genistein to both chambers to potentiate ΔF508-CFTR channel opening. • 4. CFTRinh-172 to the apical chamber to inhibit ΔF508-CFTR Cl-conductance.
# The inhibitable current (that current that is blocked by CFTRinh-172) is measured as the specific activity of the ΔF508-CFTR channel, and increases in response to compound in this activity over that observed in vehicle-treated samples are identified as the correction of ΔF508-CFTR function imparted by the compound tested.
row,Structure (SMILES),Ussing
1,"O=C(NCCc1nnc(CO)o1)c1cc(-c2ccccc2)on1 [Compound A1, N-(2-(5-(hydroxymethyl)-1,3,4-oxadiazol-2-yl)ethyl)-5-phenylisoxazole-3-carboxamide]",++ (++indicates activity ≧25% run at 10 uM of VX-809 at 1 uM)

# Same assay, conditions: compound at 10 uM together with VX-809 at 1 uM, relative to VX-809 (1 uM); CFTRinh-172 inhibitable short-circuit current; primary hBE homozygous ΔF508; 24 h treatment
row,Structure (SMILES),Ussing
1,"O=C(NCCc1nnc(CO)o1)c1cc(-c2ccccc2)on1 [Compound A1, N-(2-(5-(hydroxymethyl)-1,3,4-oxadiazol-2-yl)ethyl)-5-phenylisoxazole-3-carboxamide]",** (** indicates activity ≧200% of VX-809 (1 uM) with compound at 10 uM and VX-809 at 1 uM)
